Data from the kinase profiling compilation of Christmann-Franck et al. (2016).

What was measured:
Test in all cases: KINOMEscan competition binding
Conditions in all cases: compound 1.0 µM
[1] = target: PLK1 (human) (UniProt P53350)
[2] = target: RPS6KA1 KD2 (human) (UniProt Q15418)
[3] = target: IKBKB (human) (UniProt O14920)
[4] = target: PAK6 (human) (UniProt Q9NQU5)
[5] = target: INSR (human) (UniProt P06213)
[6] = target: MAP4K1 (human) (UniProt Q92918)
[7] = target: CHEK1 (human) (UniProt O14757)
[8] = target: PDPK1 (human) (UniProt O15530)
Sequence of PDPK1 (human) (O15530 whole entry, looked up): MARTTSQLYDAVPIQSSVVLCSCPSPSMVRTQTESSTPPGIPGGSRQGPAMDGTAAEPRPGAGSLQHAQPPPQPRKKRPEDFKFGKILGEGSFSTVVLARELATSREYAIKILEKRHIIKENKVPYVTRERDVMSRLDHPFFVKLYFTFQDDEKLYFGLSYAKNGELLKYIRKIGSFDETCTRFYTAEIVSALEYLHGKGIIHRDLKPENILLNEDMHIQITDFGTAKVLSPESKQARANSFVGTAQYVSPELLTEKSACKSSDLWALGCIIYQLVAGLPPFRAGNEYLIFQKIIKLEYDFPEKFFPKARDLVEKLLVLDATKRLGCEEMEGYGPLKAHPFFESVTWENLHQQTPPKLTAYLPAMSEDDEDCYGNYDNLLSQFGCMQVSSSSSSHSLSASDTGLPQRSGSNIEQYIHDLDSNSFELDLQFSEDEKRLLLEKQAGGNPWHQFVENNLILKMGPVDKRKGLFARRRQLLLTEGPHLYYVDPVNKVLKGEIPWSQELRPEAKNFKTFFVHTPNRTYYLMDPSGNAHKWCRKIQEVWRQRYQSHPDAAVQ

[9] = target: RIPK1 (human) (UniProt Q13546)
[10] = target: GSK3B (human) (UniProt P49841)
[11] = target: ACVR2B (human) (UniProt Q13705)
[12] = target: RPS6KA2 KD1 (human) (UniProt Q15349)
[13] = system: PIK3CA (human), P42336 [I800L]
[14] = target: PAK7 (human) (UniProt Q9P286)
[15] = target: DYRK1A (human) (UniProt Q13627)
[16] = target: EPHA6 (human) (UniProt Q9UF33)
[17] = target: WEE1 (human) (UniProt P30291)
[18] = target: TESK1 (human) (UniProt Q15569)
[19] = target: STK24 (human) (UniProt Q9Y6E0)
[20] = target: FRK (human) (UniProt P42685)
[21] = target: PIM1 (human) (UniProt P11309)
Sequence of PIM1 (human) (P11309 whole entry, looked up): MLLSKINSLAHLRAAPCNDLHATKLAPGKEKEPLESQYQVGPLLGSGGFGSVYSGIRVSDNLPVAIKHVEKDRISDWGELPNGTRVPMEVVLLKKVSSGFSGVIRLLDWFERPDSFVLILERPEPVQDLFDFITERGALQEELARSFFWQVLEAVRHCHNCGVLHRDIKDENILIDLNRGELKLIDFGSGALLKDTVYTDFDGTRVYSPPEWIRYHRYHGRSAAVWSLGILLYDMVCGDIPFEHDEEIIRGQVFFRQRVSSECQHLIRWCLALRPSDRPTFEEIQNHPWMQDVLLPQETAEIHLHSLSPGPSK

[22] = target: PAK4 (human) (UniProt O96013)
[23] = target: MAP2K7 (human) (UniProt O14733)
[24] = target: TGFBR2 (human) (UniProt P37173)
Sequence of TGFBR2 (human) (P37173 whole entry, looked up): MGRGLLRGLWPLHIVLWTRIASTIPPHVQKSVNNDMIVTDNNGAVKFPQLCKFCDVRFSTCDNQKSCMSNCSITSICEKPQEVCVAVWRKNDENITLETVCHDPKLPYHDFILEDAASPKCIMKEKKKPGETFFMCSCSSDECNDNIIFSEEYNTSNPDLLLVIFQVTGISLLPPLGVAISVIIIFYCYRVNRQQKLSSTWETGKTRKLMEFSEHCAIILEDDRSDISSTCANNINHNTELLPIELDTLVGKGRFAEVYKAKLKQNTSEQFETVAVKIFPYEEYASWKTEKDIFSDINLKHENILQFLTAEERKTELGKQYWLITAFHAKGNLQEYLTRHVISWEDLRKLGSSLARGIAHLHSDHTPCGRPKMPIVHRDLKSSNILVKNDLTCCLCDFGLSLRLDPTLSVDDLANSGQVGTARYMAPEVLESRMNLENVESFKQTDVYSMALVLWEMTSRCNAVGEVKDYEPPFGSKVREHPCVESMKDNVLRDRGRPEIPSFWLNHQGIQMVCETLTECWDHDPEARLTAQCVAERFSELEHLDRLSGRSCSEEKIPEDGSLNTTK

[25] = target: CSNK2A1 (human) (UniProt P68400)
Sequence of CSNK2A1 (human) (P68400 whole entry, looked up): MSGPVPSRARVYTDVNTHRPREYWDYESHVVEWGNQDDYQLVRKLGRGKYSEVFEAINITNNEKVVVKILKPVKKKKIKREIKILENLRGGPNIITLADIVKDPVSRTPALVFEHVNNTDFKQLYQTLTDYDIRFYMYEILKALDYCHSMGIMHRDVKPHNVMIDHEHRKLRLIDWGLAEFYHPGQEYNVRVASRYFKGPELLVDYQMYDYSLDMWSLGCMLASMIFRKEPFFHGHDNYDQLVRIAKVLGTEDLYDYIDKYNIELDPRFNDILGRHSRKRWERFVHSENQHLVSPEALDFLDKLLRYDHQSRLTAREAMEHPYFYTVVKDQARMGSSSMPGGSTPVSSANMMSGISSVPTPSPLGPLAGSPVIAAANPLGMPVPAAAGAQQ

[26] = target: CDK7 (human) (UniProt P50613)
Sequence of CDK7 (human) (P50613 whole entry, looked up): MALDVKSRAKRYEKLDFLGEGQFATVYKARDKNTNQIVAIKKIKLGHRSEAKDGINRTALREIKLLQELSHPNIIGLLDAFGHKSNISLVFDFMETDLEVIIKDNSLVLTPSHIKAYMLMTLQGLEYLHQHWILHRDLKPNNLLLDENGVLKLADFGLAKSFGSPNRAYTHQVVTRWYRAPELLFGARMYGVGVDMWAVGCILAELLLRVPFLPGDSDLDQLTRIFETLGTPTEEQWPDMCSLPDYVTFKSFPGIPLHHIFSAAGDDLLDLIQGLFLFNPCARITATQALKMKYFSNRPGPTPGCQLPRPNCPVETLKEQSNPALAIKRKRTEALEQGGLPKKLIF

[27] = target: RAF1 (human) (UniProt P04049)
Sequence of RAF1 (human) (P04049 whole entry, looked up): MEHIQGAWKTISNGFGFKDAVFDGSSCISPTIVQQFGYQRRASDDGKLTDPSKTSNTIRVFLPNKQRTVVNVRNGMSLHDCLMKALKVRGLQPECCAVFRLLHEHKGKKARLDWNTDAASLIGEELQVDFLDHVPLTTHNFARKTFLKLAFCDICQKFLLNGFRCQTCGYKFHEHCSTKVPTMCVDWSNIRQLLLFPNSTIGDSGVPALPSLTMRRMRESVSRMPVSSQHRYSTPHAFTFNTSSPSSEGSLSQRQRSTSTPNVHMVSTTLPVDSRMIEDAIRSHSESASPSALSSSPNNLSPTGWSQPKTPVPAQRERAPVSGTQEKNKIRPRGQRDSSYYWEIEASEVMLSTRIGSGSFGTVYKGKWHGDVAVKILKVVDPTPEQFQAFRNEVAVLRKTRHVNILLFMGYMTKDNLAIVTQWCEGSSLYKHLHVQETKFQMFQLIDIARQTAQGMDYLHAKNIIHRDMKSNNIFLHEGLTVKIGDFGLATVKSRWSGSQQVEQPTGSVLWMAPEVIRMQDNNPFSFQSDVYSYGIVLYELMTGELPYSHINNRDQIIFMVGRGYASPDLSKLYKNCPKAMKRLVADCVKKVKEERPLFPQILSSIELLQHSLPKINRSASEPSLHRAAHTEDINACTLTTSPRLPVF

[28] = target: PLK4 (human) (UniProt O00444)
[29] = target: MAPKAPK2 (human) (UniProt P49137)
[30] = target: MTOR (human) (UniProt P42345)
[31] = target: YES1 (human) (UniProt P07947)
[32] = target: CDK18 (human) (UniProt Q07002)
Sequence of CDK18 (human) (Q07002 whole entry, looked up): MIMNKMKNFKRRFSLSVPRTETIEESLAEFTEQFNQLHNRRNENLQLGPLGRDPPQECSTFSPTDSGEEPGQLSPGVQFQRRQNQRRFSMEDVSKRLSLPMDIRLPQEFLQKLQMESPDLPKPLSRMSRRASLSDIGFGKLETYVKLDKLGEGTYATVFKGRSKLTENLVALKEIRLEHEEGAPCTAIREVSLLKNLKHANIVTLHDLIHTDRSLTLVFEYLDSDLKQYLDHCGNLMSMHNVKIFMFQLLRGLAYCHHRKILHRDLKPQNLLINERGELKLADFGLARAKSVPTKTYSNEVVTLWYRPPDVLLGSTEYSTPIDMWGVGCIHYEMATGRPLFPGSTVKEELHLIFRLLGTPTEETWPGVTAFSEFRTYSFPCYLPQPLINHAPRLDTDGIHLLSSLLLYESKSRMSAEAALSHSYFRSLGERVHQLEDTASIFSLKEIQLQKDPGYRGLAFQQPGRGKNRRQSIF

[33] = target: NTRK3 (human) (UniProt Q16288)
[34] = target: DYRK1B (human) (UniProt Q9Y463)
[35] = target: CAMKK2 (human) (UniProt Q96RR4)
[36] = target: CLK4 (human) (UniProt Q9HAZ1)
[37] = target: ALK (human) (UniProt Q9UM73)
[38] = target: CRK2 (P.falciparum) (UniProt P61075)
Sequence of CRK2 (P.falciparum) (P61075 whole entry, looked up): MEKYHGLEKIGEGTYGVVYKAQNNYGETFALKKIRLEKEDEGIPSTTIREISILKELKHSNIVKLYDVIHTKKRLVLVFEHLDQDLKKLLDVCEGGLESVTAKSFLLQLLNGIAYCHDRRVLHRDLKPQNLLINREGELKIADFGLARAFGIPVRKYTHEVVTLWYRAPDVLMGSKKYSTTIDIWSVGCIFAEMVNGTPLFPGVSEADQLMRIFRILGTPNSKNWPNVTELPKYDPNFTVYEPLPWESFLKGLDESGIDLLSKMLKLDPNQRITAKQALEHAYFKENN

[39] = target: SRPK2 (human) (UniProt P78362)
[40] = target: DMPK (human) (UniProt Q09013)
[41] = target: FGFR4 (human) (UniProt P22455)
[42] = target: EPHA1 (human) (UniProt P21709)
[43] = target: TBK1 (human) (UniProt Q9UHD2)

Sequence of PAK6 (human) (Q9NQU5 whole entry, looked up): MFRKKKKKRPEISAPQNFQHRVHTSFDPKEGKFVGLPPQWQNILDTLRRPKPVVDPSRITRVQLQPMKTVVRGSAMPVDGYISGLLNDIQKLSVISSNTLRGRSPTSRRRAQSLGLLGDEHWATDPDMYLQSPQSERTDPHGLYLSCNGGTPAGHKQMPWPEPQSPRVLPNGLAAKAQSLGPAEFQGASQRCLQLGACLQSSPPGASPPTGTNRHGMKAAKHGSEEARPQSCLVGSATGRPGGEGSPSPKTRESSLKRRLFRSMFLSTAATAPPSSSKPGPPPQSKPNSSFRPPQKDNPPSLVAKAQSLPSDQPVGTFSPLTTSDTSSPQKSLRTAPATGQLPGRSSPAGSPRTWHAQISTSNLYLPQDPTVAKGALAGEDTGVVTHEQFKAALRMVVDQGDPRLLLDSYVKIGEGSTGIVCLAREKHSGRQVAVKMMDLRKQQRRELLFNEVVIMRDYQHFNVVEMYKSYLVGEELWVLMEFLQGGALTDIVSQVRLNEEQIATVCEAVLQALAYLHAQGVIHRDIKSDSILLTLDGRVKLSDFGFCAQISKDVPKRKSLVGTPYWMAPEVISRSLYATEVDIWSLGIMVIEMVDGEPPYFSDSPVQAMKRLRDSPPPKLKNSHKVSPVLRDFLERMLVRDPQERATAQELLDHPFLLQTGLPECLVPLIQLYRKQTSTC
Sequence of RPS6KA1 KD2 (human) (Q15418 whole entry, looked up): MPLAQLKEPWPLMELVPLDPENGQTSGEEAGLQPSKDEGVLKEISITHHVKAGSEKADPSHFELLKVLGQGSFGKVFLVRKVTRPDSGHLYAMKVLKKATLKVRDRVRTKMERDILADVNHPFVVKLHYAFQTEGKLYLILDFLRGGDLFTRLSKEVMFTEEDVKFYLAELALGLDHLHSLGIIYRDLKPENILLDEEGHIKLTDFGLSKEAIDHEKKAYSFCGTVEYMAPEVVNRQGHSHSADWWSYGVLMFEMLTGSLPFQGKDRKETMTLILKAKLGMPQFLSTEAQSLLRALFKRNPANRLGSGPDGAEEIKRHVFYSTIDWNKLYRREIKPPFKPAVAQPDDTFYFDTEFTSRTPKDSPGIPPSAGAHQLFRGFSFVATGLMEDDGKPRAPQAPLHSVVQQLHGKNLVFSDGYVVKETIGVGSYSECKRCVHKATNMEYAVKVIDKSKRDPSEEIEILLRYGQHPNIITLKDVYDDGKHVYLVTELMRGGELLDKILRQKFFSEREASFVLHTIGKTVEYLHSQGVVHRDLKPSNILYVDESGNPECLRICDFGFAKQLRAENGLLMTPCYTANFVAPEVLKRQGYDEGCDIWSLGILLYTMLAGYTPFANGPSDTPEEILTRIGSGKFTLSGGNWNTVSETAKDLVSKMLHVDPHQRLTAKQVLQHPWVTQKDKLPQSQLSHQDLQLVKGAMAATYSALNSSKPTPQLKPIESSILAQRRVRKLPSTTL

`COCCNCCCn1c(C(=O)CF)c(-c2ccc(C)cc2)c2c(N)ncnc21` was tested, and the kinase still bound, per cent of control [1] was 100%, the kinase still bound, per cent of control [2] was 31% and the kinase still bound, per cent of control [3] was 95%. For the same compound, the kinase still bound, per cent of control [4] was 93%, the kinase still bound, per cent of control [5] was 84% and the kinase still bound, per cent of control [6] was 86%. It also gave a kinase still bound, per cent of control [7] of 100%, a kinase still bound, per cent of control [8] of 100% and a kinase still bound, per cent of control [9] of 100%. The kinase still bound, per cent of control [10] was 100%, the kinase still bound, per cent of control [11] was 95% and the kinase still bound, per cent of control [12] was 83%. For the same compound, the kinase still bound, per cent of control [13] was 100%, the kinase still bound, per cent of control [14] was 82% and the kinase still bound, per cent of control [15] was 100%. The kinase still bound, per cent of control [16] was 82%, the kinase still bound, per cent of control [17] was 94% and the kinase still bound, per cent of control [18] was 100%. The kinase still bound, per cent of control [19] was 78%, the kinase still bound, per cent of control [20] was 81% and the kinase still bound, per cent of control [21] was 100%. The kinase still bound, per cent of control [22] was 92%, the kinase still bound, per cent of control [23] was 78% and the kinase still bound, per cent of control [24] was 100%. For the same compound, the kinase still bound, per cent of control [25] was 100%, the kinase still bound, per cent of control [26] was 100% and the kinase still bound, per cent of control [27] was 99%. For the same compound, the kinase still bound, per cent of control [28] was 100%, the kinase still bound, per cent of control [29] was 97% and the kinase still bound, per cent of control [30] was 90%. It also gave a kinase still bound, per cent of control [31] of 92%, a kinase still bound, per cent of control [32] of 100% and a kinase still bound, per cent of control [33] of 91%. For the same compound, the kinase still bound, per cent of control [34] was 96%, the kinase still bound, per cent of control [35] was 100% and the kinase still bound, per cent of control [36] was 91%. For the same compound, the kinase still bound, per cent of control [37] was 71%, the kinase still bound, per cent of control [38] was 100% and the kinase still bound, per cent of control [39] was 100%. For the same compound, the kinase still bound, per cent of control [40] was 84%, the kinase still bound, per cent of control [41] was 100% and the kinase still bound, per cent of control [42] was 94%. For the same compound, the kinase still bound, per cent of control [43] was 100%.
